US20230098667A1, “BENZODIAZEPINE DERIVATIVES, COMPOSITIONS, AND METHODS FOR TREATING COGNITIVE IMPAIRMENT” (priority 2019, published 2023)
“Also recorded” adds a separate entry of the source. Where two headings read alike, the source gives them in different places.

Columns and labels:
[1] = target: T1, GABAA receptors α5β3γ2 (GABA α5) (Homo sapiens, UniProt P18507+P31644); test: Binding activity on GABAAR: inhibition of [3H]Ro15-1788 binding, membranes of Ltk cells; details: α5β3γ2 Ltk cell membranes
T1 construct: membranes
T1 sequence (P31644 32-462): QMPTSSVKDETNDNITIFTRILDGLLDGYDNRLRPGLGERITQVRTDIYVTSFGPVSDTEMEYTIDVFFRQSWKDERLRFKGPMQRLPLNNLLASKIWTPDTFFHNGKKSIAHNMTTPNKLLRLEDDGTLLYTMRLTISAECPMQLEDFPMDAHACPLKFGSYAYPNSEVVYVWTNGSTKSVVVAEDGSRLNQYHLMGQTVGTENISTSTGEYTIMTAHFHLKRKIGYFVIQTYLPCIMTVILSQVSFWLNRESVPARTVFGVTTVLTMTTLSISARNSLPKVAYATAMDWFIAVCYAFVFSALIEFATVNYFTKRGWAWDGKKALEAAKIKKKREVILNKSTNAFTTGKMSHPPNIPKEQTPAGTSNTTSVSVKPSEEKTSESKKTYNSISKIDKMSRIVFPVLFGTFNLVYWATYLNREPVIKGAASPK
T1 sequence (P28472 26-473 partner): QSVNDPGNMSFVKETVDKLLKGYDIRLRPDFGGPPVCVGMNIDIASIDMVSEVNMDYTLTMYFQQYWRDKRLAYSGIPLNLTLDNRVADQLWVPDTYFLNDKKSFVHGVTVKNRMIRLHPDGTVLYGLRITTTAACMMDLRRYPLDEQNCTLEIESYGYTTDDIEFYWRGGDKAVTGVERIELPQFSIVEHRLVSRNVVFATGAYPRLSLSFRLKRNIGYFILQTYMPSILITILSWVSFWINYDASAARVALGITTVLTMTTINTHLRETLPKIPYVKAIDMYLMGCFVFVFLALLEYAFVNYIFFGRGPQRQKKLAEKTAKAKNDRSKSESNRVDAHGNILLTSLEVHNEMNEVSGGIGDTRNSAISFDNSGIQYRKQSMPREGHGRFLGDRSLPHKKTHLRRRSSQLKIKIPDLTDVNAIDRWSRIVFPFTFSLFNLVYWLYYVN
T1 sequence (P18507 40-467 limits assumed): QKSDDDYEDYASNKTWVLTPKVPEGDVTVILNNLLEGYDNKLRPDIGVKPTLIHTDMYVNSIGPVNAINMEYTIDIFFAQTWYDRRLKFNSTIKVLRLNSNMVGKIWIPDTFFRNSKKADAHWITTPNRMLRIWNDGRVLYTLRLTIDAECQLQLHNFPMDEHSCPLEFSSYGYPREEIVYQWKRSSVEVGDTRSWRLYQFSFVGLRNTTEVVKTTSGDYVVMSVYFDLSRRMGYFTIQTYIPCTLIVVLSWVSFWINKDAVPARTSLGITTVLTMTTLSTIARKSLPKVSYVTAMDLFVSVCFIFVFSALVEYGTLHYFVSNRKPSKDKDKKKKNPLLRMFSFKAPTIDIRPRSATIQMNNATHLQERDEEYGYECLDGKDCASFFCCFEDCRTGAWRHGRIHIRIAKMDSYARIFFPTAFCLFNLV
Description: (§1) Tissue culture and Membrane Preparation: The binding was performed on Ltk cells stably expressing GABAA receptors: α1β1γ2, α2β3γ2, α3β3γ2 and α5β3γ2 (provided by Merck Co., NJ, USA). Cells were seeded in 100 mm culture plates in DMEM/F12 medium containing 10% serum and antibiotics in 5% CO2 and allowed to grow for 1-2 days. GABAAR expression was then induced by dexamethasone as follows: 0.5 μM for 1 day for α5 containing and 2 μM for 3 days for α1, α2 and α3 containing GABAARs. After induction, cells were collected by scraping into Dulbecco's Phosphate buffered saline (DPBS, pH 7.4, Invitrogen, Carlsbad, Calif., USA) and centrifuged at 150×g for 10 min. The pellet was washed twice by re-suspension and centrifugation. The cell pellets from at least 5 different preps were combined, suspended in the binding assay buffer (50 mM KH2PO4; 1 mM EDTA; 0.2 M KCl, pH 7.4) and membranes prepared by sonication (3-5 times, 30 sec) using Branson Sonifier 150 (G. Heinmann, Germany). Protein content was determined using BCA assay (Bio-Rad Labs, Reinach, Switzerland) with Bovine Serum Albumin (Sigma Aldrich, St. Louis, Mo., USA) as the standard. Aliquots were prepared and stored at −20° C. for further use in binding assays.
(§2) Ligand Binding: Saturation binding curves were obtained by incubating membranes with increasing concentrations (0.01-8 nM) of [^3H]Rol5-1788 (Flumazepil, 75-85 Ci/mmol, PerkinElmer, MA, USA), with nonspecific binding measured in the presence of 10 μM diazepam.
All binding assays were performed for 1 h at 4° C. in assay buffer. The total assay volume was 0.5 ml containing 0.2 mg/ml protein for α5 and 0.4 mg/ml for α1, α2, and α3 containing GABAAR membranes. Incubations were terminated by filtration through GF/B filters using a 24-Cell Harvestor (Brandel, Gaithersburg, Md., USA) followed by 3 washes with ice-cold assay buffer. Filters were transferred to scintillation vials, 5 ml scintillation liquid added, vortex-mixed and kept in dark. Next day, radioactivity was obtained using a scintillation counter (Beckman Coulter, Brea, Calif., USA). All assays were performed in triplicate.
Data Analyses: Saturation and inhibition curves were obtained using GraphPad Prism software (GraphPad Software, Inc., CA, USA).

[2] = system: GABA α5 versus GABA α1, GABA α2, or GABA α3; test: Binding selectivity from [3H]Ro15-1788 binding on GABAAR subtypes
Description: as §1, with “The cell pellets from at least 5 different preps were combined, suspended in the binding assay buffer (50 mM KH2PO4; 1 mM EDTA; 0.2 M KCl, pH 7.4) and membranes prepared by sonication (3-5 times, 30 sec) using Branson Sonifier 150 (G. Heinmann, Germany).” left out, “Aliquots were prepared and stored at −20° C. for further use in binding assays.” left out
as §2
All binding assays were performed for 1 h at 4° C. in assay buffer. […] Next day, radioactivity was obtained using a scintillation counter (Beckman Coulter, Brea, Calif., USA). […]

[3] = type: in vivo, Long Evans rats
Description: (§3) Food and water were available ad libitum.
For plasma exposures, blood samples were centrifuged at 14000 rpm for 16 minutes. After centrifuging, 50 ul of supernatant (plasma) from each sample was added to 200 μl of acetonitrile plus 0.1% formic acid. […] Samples were sonicated for 5 minutes in an ultrasonic water bath, followed by centrifugation for 30 minutes, at 16000 RPM. 100 ul of supernatant was removed from each sample vial and placed in a new glass auto sample vial, followed by the addition of 300 μl of sterile water (pH 6.5).
Additional studies were conducted in aged Long-Evans rats in order to determine the exposures at the behaviorally relevant doses in the cognition studies. Exposure in young Long-Evans rats was also determined to bridge with the receptor occupancy studies that were conducted in young Long-Evans rats. Exposures in young and aged Long-Evans rats were relatively similar (Table 4, FIG. 4).

GABAA α5 receptor = target: T2, GABAA α5 receptor (Rattus norvegicus, UniProt P19969); test: GABAA α5 receptor occupancy with Ro 15-4513 tracer; type: in vivo, Long Evans rats
T2 construct: from tissue; host or cells: brain of living Long Evans rats; hippocampus and cerebellum dissected after i.v. dosing
T2 sequence (P19969 32-464 limits assumed): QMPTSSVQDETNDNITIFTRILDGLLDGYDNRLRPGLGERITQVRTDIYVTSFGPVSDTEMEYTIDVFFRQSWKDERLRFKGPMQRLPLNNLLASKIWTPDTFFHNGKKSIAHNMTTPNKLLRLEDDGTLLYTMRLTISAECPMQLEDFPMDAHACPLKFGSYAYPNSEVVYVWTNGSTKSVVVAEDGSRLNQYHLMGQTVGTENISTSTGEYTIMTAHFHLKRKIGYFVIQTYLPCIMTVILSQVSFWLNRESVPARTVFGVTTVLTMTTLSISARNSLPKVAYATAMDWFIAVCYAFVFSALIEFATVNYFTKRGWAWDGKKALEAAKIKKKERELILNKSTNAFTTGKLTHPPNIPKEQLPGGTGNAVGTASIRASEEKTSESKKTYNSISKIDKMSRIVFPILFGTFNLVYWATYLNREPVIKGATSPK
Text: as §3

aged-impaired (AI) rats = test: Radial Arm Maze (RAM) behavioral task, two-hour delay; type: in vivo, rat; details: 3 mg/kg ip
Description: The effects of methyl 3,5-diphenylpyridazine-4-carboxylate on the in vivo spatial memory retention of aged-impaired (AI) rats were assessed in a Radial Arm Maze (RAM) behavioral task using vehicle control and four different dosage levels of methyl 3,5-diphenylpyridazine-4-carboxylate (0.1 mg/kg, 0.3 mg/kg, 1 mg/kg and 3 mg/kg, ip). RAM behavioral tasks were performed on eight AI rats. All five treatment conditions (vehicle and four dosage levels) were tested on all eight rats.
The RAM apparatus used consisted of eight equidistantly-spaced arms. An elevated maze arm (7 cm width×75 cm length) projected from each facet of an octagonal center platform (30 cm diameter, 51.5 cm height). Clear side walls on the arms were 10 cm high and were angled at […] to form a trough. A food well (4 cm diameter, 2 cm deep) was located at the distal end of each arm. Froot Loops™ (Kellogg Company) were used as rewards. Blocks constructed of Plexiglas™ (30 cm height×12 cm width) could be positioned to prevent entry to any arm. Numerous extra maze cues surrounding the apparatus were also provided.
The AI rats were initially subjected to a pre-training test (Chappell et al. Neuropharmacology 37: 481-487, 1998). […]

α5-containing GABAA R = target: T3, α5-containing GABAA R (Homo sapiens, UniProt P18507+P31644); details: cited from earlier work
T3 sequence (P31644 32-462): T1 sequence (P31644 32-462)
T3 sequence (P28472 26-473 partner): T1 sequence (P28472 26-473 partner)
T3 sequence (P18507 40-467 limits assumed): T1 sequence (P18507 40-467 limits assumed)

GABAA receptors (α5β2γ2) = target: T4, GABAA receptors (α5β2γ2) (Homo sapiens, UniProt P18507+P31644); test: Positive allosteric modulator activity: potentiation of EC20 GABA current in oocytes; type: cell-based; details: @ 100 nM
T4 construct: expressed in transfected cells
T4 sequence (P31644 32-462): T1 sequence (P31644 32-462)
T4 sequence (P47870 25-512 partner limits assumed): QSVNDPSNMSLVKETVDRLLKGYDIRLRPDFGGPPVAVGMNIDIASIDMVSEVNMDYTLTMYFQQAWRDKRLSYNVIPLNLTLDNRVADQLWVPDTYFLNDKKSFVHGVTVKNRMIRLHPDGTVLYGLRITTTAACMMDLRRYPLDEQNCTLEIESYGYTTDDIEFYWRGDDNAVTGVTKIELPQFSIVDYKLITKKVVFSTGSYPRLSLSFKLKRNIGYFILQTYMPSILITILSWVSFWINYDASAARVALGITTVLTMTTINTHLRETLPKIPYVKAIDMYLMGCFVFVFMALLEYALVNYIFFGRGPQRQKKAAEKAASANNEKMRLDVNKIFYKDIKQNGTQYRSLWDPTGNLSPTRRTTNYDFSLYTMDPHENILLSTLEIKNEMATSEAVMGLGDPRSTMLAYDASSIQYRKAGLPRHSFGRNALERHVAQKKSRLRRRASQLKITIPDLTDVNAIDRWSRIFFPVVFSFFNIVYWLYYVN
T4 sequence (P18507 40-467 limits assumed): T1 sequence (P18507 40-467 limits assumed)
Description: On day 1, 1 ng/32 nL of GABAA α5β2γ2 cDNA was injected into one oocyte. Test starts on day 2. The cDNA injected to the oocytes was a mix of alpha, beta and gamma, their ratio is 1:1:10 (by weight) and the total weight of the mixed 3 subunits to be injected in one oocyte was 1 ng in 32 nl volume. The injected oocytes can also be tested on day 3. In such case, the cDNA amount injected to the oocytes should be reduced by 20%.
1). 8 oocytes were placed in 8 chambers of OpusXpress and superfused with Modified Barth's Saline (MBS) at 3 mL/min. Glass electrodes back-filled with 3M KCl (0.5-3 megaohms) were used. […] 2). […] 3).
1). New oocytes were used to run new test. 2). […] 3). […] Oocytes were washed with MBS for 5-10 min. 4). […] Itest was divided by IGABA to obtain potentiation (%).
1). Repeat the above steps 1), 2) and 3) in the control test. 2). […] Divide Itest by IGABA to obtain potentiation (%). 3). Discard all tested oocytes, new oocytes were used and the above steps 1) and 2) were repeated to test second concentration of the same compound. Each oocyte was used for only one concentration test for a single test compound. The steps were repeated for other test compounds.

SMILES | Ki [1] [nM] | Binding selectivity for GABA α5 versus GABA α1, GABA α2, or GABA α3 [2] | increase in hippocampal exposure ([3]; dose from 0.1 to 1 mg/kg, i.v.) [fold] | increase in exposure in hippocampus and plasma ([3]; dose from 1 to 3 mg/kg, ip, young and aged rats) [fold] | increase in hippocampal exposure ([3]; dose from 1 to 10 mg/kg, i.v.) [fold] | increase in plasma exposure ([3]; dose from 1 to 10 mg/kg, i.v.) [fold] | effect on Ro 15-4513 binding in hippocampus and cerebellum (GABAA α5 receptor; 0.01-10 mg/kg, i.v.) | GABAA α5 receptors occupied in hippocampus (GABAA α5 receptor; at exposures behaviorally active in aged-impaired rats) | receptor occupancy depending on method (GABAA α5 receptor; exposure of 180 ng/g in hippocampus (1 mg/kg, i.v.)) | ED50 of receptor occupancy, ratio method (GABAA α5 receptor; i.v., ratio method) [mg/kg] | receptor occupancy at 10 mg/kg (GABAA α5 receptor; rat, iv, 10 mg/kg) [%] | average no. of errors ± SEM in retention test (aged-impaired (AI) rats) | memory performance relative to vehicle control (aged-impaired (AI) rats) | α5 in vitro efficacy (EC20) (α5-containing GABAA R) | GABA α5 functional potentiation (GABAA receptors (α5β2γ2)) [% @ 100 nM]
COc1ncc(C#Cc2ncn3c2Cc2cnnn2-c2cc(Cl)ccc2-3)cc1C(F)(F)F [Compound 733] | < 100 | >100-fold | – | – | – | – | – | – | – | – | – | – | – | – | –
COC(=O)c1c(-c2ccccc2)cnnc1-c1ccccc1 [methyl 3,5-diphenylpyridazine-4-carboxylate] | – | – | 12 | 4.5 to 6.6 | ~5 | 12 | blocked the binding of Ro154513 in the hippocampus but did not affect binding of Ro15413 in the cerebellum; also recorded: dose-dependently reduced Ro 15-4513 binding in hippocampus, without affecting cerebellum levels of Ro 15-4513 | about 32% | 32-39% | 1.8 | > 90 | 1.31±0.40 | significantly improved memory performance | +27 | –
COCc1nnn2c1Cc1c(C#Cc3cnc(C)[nH]3)ncn1-c1ccc(Cl)cc1-2 [Compound 739] | < 100 | – | – | – | – | – | – | – | – | – | – | – | – | – | >50
